From ChEMBL document CHEMBL3286236, “Novel aromatic-polyamine conjugates as cholinesterase inhibitors with notable selectivity toward butyrylcholinesterase” (Bioorg Med Chem, 2014)

Experiments:
HepG2 = experiment: cells; conditions: Homo sapiens, HepG2, 48 h
Cholinesterase = Cholinesterase (Equus caballus, UniProt P81908)
Description: Inhibition of equine serum BChE using butyrylthiocholine chloride as substrate by spectrophotometer analysis

Acetylcholinesterase = Acetylcholinesterase (Electrophorus electricus, UniProt O42275)
Description: Inhibition of electric eel AChE using acetylthiocholine chloride as substrate by spectrophotometer analysis

[1] = Solubility of the compound; format: physicochemical

Acetylcholinesterase, sequence (O42275 whole entry): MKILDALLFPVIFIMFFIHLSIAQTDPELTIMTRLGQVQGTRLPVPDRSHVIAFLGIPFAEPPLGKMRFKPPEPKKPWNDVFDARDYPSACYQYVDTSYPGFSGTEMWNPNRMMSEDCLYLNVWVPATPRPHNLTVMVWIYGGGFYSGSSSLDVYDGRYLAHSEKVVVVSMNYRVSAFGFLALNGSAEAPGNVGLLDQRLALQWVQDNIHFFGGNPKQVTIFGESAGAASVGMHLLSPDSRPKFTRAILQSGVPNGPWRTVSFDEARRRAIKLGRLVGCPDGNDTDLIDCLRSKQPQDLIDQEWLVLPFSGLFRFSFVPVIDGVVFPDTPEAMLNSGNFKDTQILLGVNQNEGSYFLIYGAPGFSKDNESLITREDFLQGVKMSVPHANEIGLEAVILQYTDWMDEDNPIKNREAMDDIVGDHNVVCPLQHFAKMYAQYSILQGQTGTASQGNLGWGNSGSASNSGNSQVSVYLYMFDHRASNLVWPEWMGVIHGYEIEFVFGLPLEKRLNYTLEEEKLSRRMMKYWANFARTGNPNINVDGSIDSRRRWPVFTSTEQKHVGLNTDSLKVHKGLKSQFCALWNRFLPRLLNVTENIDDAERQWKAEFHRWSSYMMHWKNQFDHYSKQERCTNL
Cholinesterase, sequence (P81908 whole entry): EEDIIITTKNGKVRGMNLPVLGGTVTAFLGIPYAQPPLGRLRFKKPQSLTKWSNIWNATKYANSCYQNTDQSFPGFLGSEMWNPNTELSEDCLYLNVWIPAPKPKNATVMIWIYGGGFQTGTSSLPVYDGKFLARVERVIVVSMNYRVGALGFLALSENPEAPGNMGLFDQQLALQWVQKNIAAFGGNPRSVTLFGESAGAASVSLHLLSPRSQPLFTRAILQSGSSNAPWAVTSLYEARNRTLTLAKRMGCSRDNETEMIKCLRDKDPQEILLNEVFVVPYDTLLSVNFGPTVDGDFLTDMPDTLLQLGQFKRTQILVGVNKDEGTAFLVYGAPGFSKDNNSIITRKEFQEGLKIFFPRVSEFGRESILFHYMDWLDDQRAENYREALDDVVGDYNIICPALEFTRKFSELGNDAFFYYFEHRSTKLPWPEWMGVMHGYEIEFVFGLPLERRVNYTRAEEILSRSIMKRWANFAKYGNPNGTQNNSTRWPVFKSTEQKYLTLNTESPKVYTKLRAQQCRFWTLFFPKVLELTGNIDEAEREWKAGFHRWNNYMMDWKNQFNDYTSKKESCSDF

| SMILES | IC50 (HepG2) [µM] | IC50 (Cholinesterase) [µM] | IC50 (Acetylcholinesterase) [µM] | solubility [1] |
| --- | --- | --- | --- | --- |
| O=C(CNCCCO)Nc1cccc2ccccc12 | > 100 | > 50 | > 50 |  |
| CN(C)CCNCC(=O)Nc1cccc2ccccc12 | > 100 | 4.39 | > 50 |  |
| NCCCCNCC(=O)Nc1cccc2ccccc12 | > 100 | 10.3 | > 50 |  |
| NCCCNCCCCNCC(=O)Nc1cccc2ccccc12 | > 100 | 47.5 | > 50 |  |
| NCCCNCCCCNCCCNCC(=O)Nc1cccc2ccccc12 | > 100 | > 50 | > 50 |  |
| CCN(CC)CC(=O)Nc1c2ccccc2cc2ccccc12.Cl |  |  |  | Insoluble |
| Cl.O=C(CNC1CC1)Nc1c2ccccc2cc2ccccc12 |  |  |  | Insoluble |
| O=C(CNCCCO)Nc1c2ccccc2cc2ccccc12 | > 100 | 0.502 | > 50 |  |
| CN(C)CCNCC(=O)Nc1c2ccccc2cc2ccccc12 | > 100 | 0.161 | > 50 |  |
| NCCCNCC(=O)Nc1c2ccccc2cc2ccccc12 | > 100 | 0.28 | > 50 |  |
| NCCCCNCC(=O)Nc1c2ccccc2cc2ccccc12 | > 100 | 0.016 | > 50 |  |
| NCCCCCCNCC(=O)Nc1c2ccccc2cc2ccccc12 | > 100 | 0.023 | 2.74 |  |
| NCCCNCCCNCC(=O)Nc1c2ccccc2cc2ccccc12 | > 100 | 0.305 | > 50 |  |
| NCCCNCCCCNCC(=O)Nc1c2ccccc2cc2ccccc12 | > 100 | 0.164 | 25.1 |  |
| NCCCNCCCCNCCCNCC(=O)Nc1c2ccccc2cc2ccccc12 | > 100 | 0.657 | > 50 |  |
| O=C(CNCCCO)Nc1cccc2c1C(=O)c1ccccc1C2=O | 23 | > 50 | 11.1 |  |
| NCCCCNCC(=O)Nc1cccc2c1C(=O)c1ccccc1C2=O | 24.2 | > 50 | 1.5 |  |
| NCCCNCCCCNCC(=O)Nc1cccc2c1C(=O)c1ccccc1C2=O | 15.6 | 33 | 2.63 |  |
| NCCCNCCCCNCCCNCC(=O)Nc1cccc2c1C(=O)c1ccccc1C2=O | 11.5 | > 50 | 7.22 |  |
| O=C1c2c(O)ccc(O)c2C(=O)c2c(NCCNCCO)ccc(NCCNCCO)c21 [MITOXANTRONE] | 11.1 |  |  |  |
